According to publication PMC3880807 (ACS chemical biology, 2013):

Molecular target: Src (Gallus gallus, UniProt P00523, Y527F)
Experiment: In vitro activity assay with Src phospho-isoforms
Assay type: biochemical
Conditions: npY416-Src vs pY416-Src

Fold-difference in Ki, preference for npY416-Src over pY416-Src: ~ 11 fold
SMILES: CNC(=O)c1cc(Oc2ccc(NC(=O)Nc3cc(C(C)(C)C)nn3-c3ccc4ncccc4c3)c(F)c2)ccn1 [compound 1, Rebastinib]
